Reference: patent US20200289434A1, “RAPIDLY IMPROVING ENDOTHELIAL FUNCTION, REDUCING ARTERIAL STIFFNESS AND REVERSING CALCIFICATION OF BLOOD VESSELS BY ADMINISTERING VITAMIN K” (KAYDENCE PHARMA AS, priority 2019, published 2020)
Several values for one entry are separate records, joined by “and”; a condition that tells them apart may be missing. Equal entries are not always repeated.

Tests used:
ApoE/LDLR−/− mice [1] = assay: Example 3 second part: MRI assessment of Ach-induced response in BCA and LCA, older mice; assay type: in vivo; details: eight weeks, 24-week-old mice
Description: Magnetic resonance imaging (MRI) experiments were performed using a 9.4T scanner (BioSpec 94/20 USR, Bruker, Germany) located in the Department of Magnetic Resonance Imaging, Institute of Nuclear Physics, Polish Academy of Sciences in Krakow. During the experiment, mice were anaesthetized using isoflurane (Aerrane, Baxter Sp. z o. o., Poland, 1.7 vol %) in an oxygen and air (1:2) mixture and imaged in the supine position. Activity of the heart, respiration, and body temperature (maintained at 37° C. using circulating warm water) were monitored using a Monitoring and Gating System (SA Inc., Stony Brook, N.Y., USA).
Endothelial function was assessed based on vascular responses to acetylcholine (Ach) administration in brachiocephalic artery (BCA), left common carotid artery (LCA) (FIGS. 6 A and B) and abdominal aorta (AA) (FIG. 6C) as well as to responses to increase in flow (flow-mediated dilatation, FMD) in femoral artery (FA) (FIG. 6D) as described in Bar A, Skorka T, Jasinski K, Sternak M, Bartel Z, Tyrankiewicz U, et al. Retrospectively-gated MRI for in vivo assessment of endothelium-dependent vasodilatation and endothelial permeability in murine models of endothelial dysfunction. NMR Biomed 2016; 29(8):1088.; Sternak M, Bar A, Adamski M G, Mohaissen T, Marczyk B, Kieronska A, et al. The Deletion of Endothelial Sodium Channel α (αENaC) Impairs Endothelium-Dependent Vasodilation and Endothelial Barrier Integrity in Endotoxemia in Vivo. […]
Vasomotor response was examined by comparing two time-resolved 3D images of the vessels prior to and 25 minutes after intraperitoneal Ach administration (Sigma-Aldrich, Poznan Poland: 50 μl, 16.6 mg/kg), as well as prior to and 5 minutes after vessel occlusion. […] End-diastolic volumes of vessels were analyzed using ImageJ software 1.46r (NIH Bethesda, Md., USA) and scripts written in Matlab (MathWorks, Natick, Mass., USA). […]

ApoE/LDLR−/− mice [2] = assay: Example 2: histological assessment of plaque size, composition and vessel wall area in BCA; assay type: in vivo; details: two months
Text: Plaque size and composition as well as vessel wall area (VWA) in BCA-Histological assessment, cross-section method, BCA cross-sections: total 13000 slides, Photographed: 1214 slides
For the determination of atherosclerotic plaque area and composition BCA was dissected, fixed in 4% buffered formalin and embedded in paraffin. 5 μm-thick serial sections of BCA were collected from proximal, middle and distal parts of artery. Originally developed staining with Unna's orcein combined with Martius, Scarlet and Blue trichrome (OMSB), was applied on every tenth section (50 μm interval between each section) for visualization of collagen, elastin, fibrin, red blood cells and vascular smooth muscle cells within atherosclerotic plaque. The areas of particular components of atherosclerotic plaque as well as artery lumen and wall were determined after Columbus-based software processing (FIG. 1B) using a previously developed algorithm [Gajda M, Jasztal A, Banasik T, Jasek-Gajda E, Chlopicki S. Combined orcein and martius scarlet blue (OMSB) staining for qualitative and quantitative analyses of atherosclerotic plaques in brachiocephalic arteries in apoE/LDLR−/− mice. Histochem Cell Biol 2017. doi:10.1007/s00418-017-1538-81.

[3] = mouse, in vivo
[4] = system: thrombin generation in platelet-poor mice plasma; assay: Example 3 second part: thrombin generation by calibrated automated thrombogram (CAT); assay type: in vivo; details: eight weeks, either dose
Description: Thrombin generation was measured in platelet-poor mice plasma using calibrated automated thrombography (CAT) technique as described in Hemker H C, Giesen P, Al Dieri R, Regnault V, de Smedt E, Wagenvoord R, et al. Calibrated automated thrombin generation measurement in clotting plasma. Pathophysiol Haemost Thromb 2003; 33:4-15. doi:71636. Thrombin generation was activated by mixing 21 μL of diluted plasma (1:1 with BSA5 buffer) with 7 pIL of fluorogenic substrate (Z-Gly-Gly-Arg-AMC, 16.6 mM) and 14 μL of trigger solution containing phospholipids, tissue factor and CaCl2) (4 μM, […] and 16.6 mM, respectively). In the calibration wells, the 14 μL of reagents were replaced with calibrator (102 nM). Immediately after the activation, 5 μL of the mixture was pipetted on paper disks in a flat bottom 96-well polystyrene plate and covered with 40 μL of mineral oil. Fluorescent signals were measured using the Fluoroskan Ascent software (Thermo Labsystems, Helsinki, Finland) and transformed into thrombin concentration as described in Hemker H C, Kremers R. Data management in Thrombin Generation. Thromb Res 2013; 131:3-11. doi:10.1016/j.thromres.2012.10.011. The parameters analyzed included endogenous thrombin potential (ETP), peak thrombin concentration (peak), and lag time.

For CC(C)=CCC/C(C)=C/CC/C(C)=C/CC/C(C)=C/CC/C(C)=C/CC/C(C)=C/CC/C(C)=C/CC1=C(C)C(=O)c2ccccc2C1=O [MK-7, menaquinone-7], the “change in volume of BCA after Ach injection” value (ApoE/LDLR−/− mice [1]; high dose 10 mg/kg b.w/day) was 3.12%, the “change in volume of LCA after Ach injection” value (ApoE/LDLR−/− mice [1]; high dose 10 mg/kg b.w/day) was 4.45% and the “change in volume of LCA after Ach injection” value (ApoE/LDLR−/− mice [1]; low dose 0.03 mg/kg b.w/day, listed as vitamin K2, 0.03 mg/kg/day) was ~−3% and −3.92%. For the same compound, the “effect on plaque size” value (ApoE/LDLR−/− mice [2]; either low or high dose) was “did not result in a beneficial effect”, the “plaque and lumen area expressed as percent of IWA” value (ApoE/LDLR−/− mice [2]; either low or high dose) was “did not change” and the “internal wall area (IWA)” value (ApoE/LDLR−/− mice [2]; lower dose, not visible for entire vessel) was “decreased only in the middle part of the vessel”. The “decrease in lipid core expressed as percent of plaque” value (ApoE/LDLR−/− mice [2]; similarly after low and high dose) was “about 17%”, the “decrease in vessel wall area (VWA) of BCA” value (ApoE/LDLR−/− mice [2]; similarly for low (0.03) and high (10 mg/kg b.w./day) dose) was “about 5%” and the “content of collagen in plaque” value (ApoE/LDLR−/− mice [2]; treated vs untreated groups) was “lack of differences”. The “lipid profile, liver enzymes concentration, blood cell count” value [3] was “did not affect” and the thrombin generation [4] was “did not affect”.
